Reference: patent publication US20200131180A1, “POSITIVE ALLOSTERIC MODULATORS OF THE MUSCARINIC ACETYLCHOLINE RECEPTOR M1” (Vanderbilt University, priority 2018, published 2020)

Target: T1, human mAChR M1 (Homo sapiens, UniProt P11229)
T1 sequence (P11229 1-460): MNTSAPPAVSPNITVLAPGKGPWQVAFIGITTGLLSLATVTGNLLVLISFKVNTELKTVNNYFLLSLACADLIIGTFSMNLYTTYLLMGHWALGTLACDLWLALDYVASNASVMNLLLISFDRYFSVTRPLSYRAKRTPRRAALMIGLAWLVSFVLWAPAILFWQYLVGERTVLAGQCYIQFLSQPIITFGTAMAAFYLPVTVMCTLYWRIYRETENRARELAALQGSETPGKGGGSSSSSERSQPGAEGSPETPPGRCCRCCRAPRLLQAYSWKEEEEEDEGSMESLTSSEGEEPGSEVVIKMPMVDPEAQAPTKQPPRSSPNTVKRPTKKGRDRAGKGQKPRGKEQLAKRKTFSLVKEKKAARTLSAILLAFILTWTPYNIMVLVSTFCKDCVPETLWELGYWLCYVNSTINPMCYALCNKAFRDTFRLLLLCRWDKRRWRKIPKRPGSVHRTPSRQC
Assay: mAChR M1 cell-based functional assay (calcium mobilization, PAM activity)
Settings: CHO-K1 cells expressing hM1, calcium flux (Fluo-4); for EC50: concentration-dependent increase in the EC20 acetylcholine response; for Emax: potentiation of EC20 acetylcholine response
Text: Chinese hamster ovary (CHO-K1) cells stably expressing rat (r)M1 were purchased from the American Type Culture Collection and cultured according to their indicated protocol. CHO cells stably expressing human (h)M2, hM3, and hM5 were described previously (Levey, et al., 1991); hM1 and hM4 cDNAs were purchased from Missouri S&T cDNA Resource; rM4 cDNA was provided by T. I. Bonner (National Institutes of Health, Bethesda, Md.). rM2 and rM3 were cloned from a rat brain cDNA library and sequence verified. hM1, rM2, rM3, hM4, and rM4 cDNAs were used to stably transfect CHO-K1 cells purchased from the American Type Culture Collection using Lipofectamine 2000. To make stable rM2, hM2, rM3, hM4, and rM4 cell lines for use in calcium mobilization assays, these cells also were stably transfected with a chimeric G-protein (Gqi5) (provided by B. R. Conklin, University of California, San Francisco) using Lipofectamine 2000. rM1, hM1, rM3, hM3, rM5, and hM5 cells were grown in Ham's F-12 medium containing 10% heat-inactivated fetal bovine serum (FBS), 20 mM HEPES, and 50 μg/mL G418 sulfate. rM2-Gqi5, hM2-Gqi5, and hM4-Gqi5 cells were grown in the same medium also containing 500 μg/mL Hygromycin B. Stable rM4-Gqi5 cells were grown in DMEM containing 10% heat-inactivated FBS, 20 mM HEPES, 400 μg/mL G418 sulfate, and 500 μg/mL Hygromycin B.
For high throughput measurement of agonist-evoked increases in intracellular calcium, CHO-K1 cells stably expressing muscarinic receptors were plated in growth medium lacking G418 and hygromycin at 15,000 cells/20 μL/well in Greiner 384-well black-walled, tissue culture (TC)-treated, clear-bottom plates (VWR). Cells were incubated overnight at 37° C. and 5% CO2. The next day, cells were washed using an ELX 405 (BioTek) with four washes (80 μL) of assay buffer then aspirated to 20 μL. Next, 20 μL of 16 μM Fluo-4/acetoxymethyl ester (Invitrogen, Carlsbad, Calif.) prepared as a 2.3 mM stock in DMSO and mixed in a 1:1 ratio with 10% (w/v) Pluronic F-127 and diluted in assay buffer was added to the wells and the cell plates were incubated for 50 min at 37° C. and 5% CO2. Dye was removed by washing with the ELX 405 (four 80 μL washes of assay buffer) then aspirated to 20 μL. Compound master plates were formatted in an 11 point CRC format (1:3 dilutions) in 100% DMSO with a starting concentration of 10 mM using the BRAVO liquid handler (Agilent). Test compound CRCs were then transferred to daughter plates (240 nL) using the Echo acoustic plate reformatter (Labcyte, Sunnyvale, Calif.) and then diluted into assay buffer (40 μL) to a 2× stock using a Thermo Fisher Combi (Thermo Fisher Scientific, Waltham, Mass.).
Calcium flux was measured using the Functional Drug Screening System (FDSS) 6000 (Hamamatsu Corporation, Tokyo, Japan) as an increase in the fluorescent static ratio. Compounds were applied to cells (20 μL, 2×) using the automated system of the FDSS 6000 at 4 s into the 300 s protocol and the data were collected at 1 Hz. At 144 s into the 300s protocol, 10 μL of an EC20 concentration of the muscarinic receptor agonist acetylcholine was added (5×), followed by the addition of 12 μL an EC80 concentration of acetylcholine at the 230 s time point (5×). Agonist activity was analyzed as a concentration-dependent increase in calcium mobilization upon compound addition. Emax values for agonist activity are expressed relative to the maximum for acetylcholine. Positive allosteric modulator activity was analyzed as a concentration-dependent increase in the EC20 acetylcholine response. Antagonist activity was analyzed as a concentration-dependent decrease in the EC80 acetylcholine response. Concentration-response curves were generated using a four-parameter logistical equation in XLfit curve fitting software (IDBS, Bridgewater, N.J.) for Excel (Microsoft, Redmond, Wash.) or Prism (GraphPad Software, Inc., San Diego, Calif.). […]

EC50	Emax	SMILES
0.903 µM	83%	Cn1cc(-c2ccc(Cc3cc(C(=O)N[C@H]4CCOC[C@@H]4O)c4ncnn4c3)cn2)cn1 [compound 12, N-[(3R,4S)-3-hydroxytetrahydropyran-4-yl]-6-[[6-(1-methylpyrazol-4-yl)-3-pyridyl]methyl]-[1,2,4]triazolo[1,5-a]pyridine-8-carboxamide]
4.44 µM	81%	O=C(N[C@H]1CCOC[C@@H]1O)c1cc(Cc2ccc(-n3cccn3)cc2)cc2ncnn12 [compound 18, N-[(3R,4S)-3-hydroxytetrahydropyran-4-yl]-7-[(4-pyrazol-1-ylphenyl)methyl]-[1,2,4]triazolo[1,5-a]pyridine-5-carboxamide]
4.29 µM	76%	Cn1ccc(-c2ccc(Cc3cc(C(=O)NC4CC5(COC5)C4)c4nccn4c3)cc2)n1 [compound 3, 6-[[4-(1-methylpyrazol-3-yl)phenyl]methyl]-N-(2-oxaspiro[3.3]heptan-6-yl)imidazo[1,2-a]pyridine-8-carboxamide]
0.729 µM	84%	Cn1cc(-c2ccc(Cc3cc(C(=O)N[C@H]4CCCC[C@@H]4O)c4ncnn4c3)cn2)cn1 [compound 13, N-[(1S,2S)-2-hydroxycyclohexyl]-6-[[6-(1-methylpyrazol-4-yl)-3-pyridyl]methyl]-[1,2,4]triazolo[1,5-a]pyridine-8-carboxamide]
1.12 µM	85%	Cn1cc(-c2ccc(Cc3cc(C(=O)N[C@H]4CCOC[C@@H]4O)c4ncnn4c3)cc2)cn1 [compound 28, N-[(3R,4S)-3-hydroxytetrahydropyran-4-yl]-6-[[4-(1-methylpyrazol-4-yl)phenyl]methyl]-[1,2,4]triazolo[1,5-a]pyridine-8-carboxamide]
0.79 µM	85%	Cn1ccc(-c2ccc(Cc3cc(C(=O)N[C@H]4CCOC[C@@H]4O)c4ncnn4c3)cc2)n1 [compound 6, N-[(3R,4S)-3-hydroxytetrahydropyran-4-yl]-6-[[4-(1-methylpyrazol-3-yl)phenyl]methyl]-[1,2,4]triazolo[1,5-a]pyridine-8-carboxamide]
1.71 µM	74%	O=C(N[C@H]1CCCC[C@@H]1O)c1cc(Cc2ccc(-n3cccn3)cc2)cn2cnnc12 [compound 19, N-[(1S,2S)-2-hydroxycyclohexyl]-6-[(4-pyrazol-1-ylphenyl)methyl]-[1,2,4]triazolo[4,3-a]pyridine-8-carboxamide]
0.0246 µM	53%	Cc1c(Cc2ccc(-c3ccn(C)n3)cc2)cc(C(=O)N[C@H]2CCOC[C@@H]2O)c2nccn12 [compound 50, N-[(3R,4S)-3-hydroxytetrahydropyran-4-yl]-5-methyl-6-[[4-(1-methylpyrazol-3-yl)phenyl]methyl]imidazo[1,2-a]pyridine-8-carboxamide]
0.751 µM	58%	Cn1cc(-c2cc(F)c(Cc3cc(C(=O)N[C@H]4CCCC[C@@H]4O)c4nccn4c3)c(F)c2)cn1 [compound 40, 6-[[2,6-difluoro-4-(1-methylpyrazol-4-yl)phenyl]methyl]-N-[(1S,2S)-2-hydroxycyclohexyl]imidazo[1,2-a]pyridine-8-carboxamide]
1.01 µM	47%	O=C(N[C@H]1CCCC[C@@H]1O)c1cc(Cc2ccc(-n3cccn3)nc2)cn2ccnc12 [compound 60, N-[(1S,2S)-2-hydroxycyclohexyl]-6-[(6-pyrazol-1-yl-3-pyridyl)methyl]imidazo[1,2-a]pyridine-8-carboxamide]
0.249 µM	66%	Cn1ccc(-c2ccc(Cc3cc(C(=O)N[C@H]4CCOC[C@@H]4O)c4nccn4c3)c(F)c2)n1 [compound 53, 6-[[2-fluoro-4-(1-methylpyrazol-3-yl)phenyl]methyl]-N-[(3R,4S)-3-hydroxytetrahydropyran-4-yl]imidazo[1,2-a]pyridine-8-carboxamide]
1.2 µM	76%	Cn1ccc(-c2cc(F)c(Cc3cc(C(=O)N[C@H]4CCOC[C@@H]4O)c4ncnn4c3)c(F)c2)n1 [compound 41, 6-[[2,6-difluoro-4-(1-methylpyrazol-3-yl)phenyl]methyl]-N-[(3R,4S)-3-hydroxytetrahydropyran-4-yl]-[1,2,4]triazolo[1,5-a]pyridine-8-carboxamide]
7.98 µM	78%	Cn1ccc(-c2ccc(Cc3cc(C(=O)N[C@H]4CCOC[C@@H]4O)c4ncnn4c3)cn2)n1 [compound 27, N-[(3R,4S)-3-hydroxytetrahydropyran-4-yl]-6-[[6-(1-methylpyrazol-3-yl)-3-pyridyl]methyl]-[1,2,4]triazolo[1,5-a]pyridine-8-carboxamide]
0.341 µM	82%	O=C(N[C@H]1CCOC[C@@H]1O)c1cc(Cc2ccc(-n3cccn3)cc2)cn2ccnc12 [compound 23, N-[(3R,4S)-3-hydroxytetrahydropyran-4-yl]-6-[(4-pyrazol-1-ylphenyl)methyl]imidazo[1,2-a]pyridine-8-carboxamide]
9.36 µM	31%	Cc1nc(-c2ccc(Cc3cc(C(=O)NC4CCOCC4)c4ncnn4c3)cc2)co1 [compound 35, 6-[[4-(2-methyloxazol-4-yl)phenyl]methyl]-N-tetrahydropyran-4-yl-[1,2,4]triazolo[1,5-a]pyridine-8-carboxamide]
1.2 µM	79%	Cn1ccc(-c2ccc(Cc3cc(C(=O)N[C@H]4CCC[C@@H]4O)c4nccn4c3)c(F)c2)n1 [compound 59, 6-[[2-fluoro-4-(1-methylpyrazol-3-yl)phenyl]methyl]-N-[(1S,2S)-2-hydroxycyclopentyl]imidazo[1,2-a]pyridine-8-carboxamide]
1.19 µM	82%	O=C(N[C@H]1CCCC[C@@H]1O)c1cc(Cc2ccc(-n3cccn3)cc2)cc2ncnn12 [compound 20, N-[(1S,2S)-2-hydroxycyclohexyl]-7-[(4-pyrazol-1-ylphenyl)methyl]-[1,2,4]triazolo[1,5-a]pyridine-5-carboxamide]
–	46%	O=C(NC1CCOCC1)c1cc(Cc2ccc(-n3cccn3)cc2)cc2ncnn12 [compound 67, 7-(4-(1H-pyrazol-1-yl)benzyl)-N-(tetrahydro-2H-pyran-4-yl)-[1,2,4]triazolo[1,5-a]pyridine-5-carboxamide]
0.604 µM	87%	O=C(N[C@H]1CCCC[C@@H]1O)c1cc(Cc2ccc(-n3cccn3)cc2)cn2ncnc12 [compound 33, N-[(1S,2S)-2-hydroxycyclohexyl]-6-[(4-pyrazol-1-ylphenyl)methyl]-[1,2,4]triazolo[1,5-a]pyridine-8-carboxamide]
